# In PMC8699718, “A structurally conserved site in AUP1 binds the E2 enzyme UBE2G2 and is essential for ER-associated degradation” (PLoS Biology, 2021):
# Key:
# Assay type in all cases: cell-based, human
# UBE2G2 = UBE2G2 levels in HT1080 cells loaded with oleic acid; conditions: HT1080, 200 μM oleic acid
# Protocol: Plasmid transfections were carried out using PolyFect (Qiagen, Germantown, MD, USA) or JetPrime (Polyplus, New York, NY, USA) reagents. For CHX chase experiments, approximately 24 hours following plasmid transfection, cells were treated with 50 μg/mL CHX in complete media for the indicated times. For lipid droplet experiments, cells were treated with 200 μM oleic acid (Millipore Sigma) for 16 hours, beginning 24 hours following transfection. For assessment of GFP^u stability, cells were cultured in DMEM supplemented with 10% FetalPlex animal serum complex (Gemini Bio, West Sacramento, CA, USA) and treated with 50 μM emetine for the indicated times to inhibit protein synthesis. […] Clarified lysates or immunoprecipitates were denatured by heating in NuPAGE LDS Sample Buffer with β-mercaptoethanol at 70°C for 10 minutes, resolved on Bis-Tris polyacrylamide gels in NuPAGE MES or MOPS SDS running buffer and analyzed by western blotting. Proteins were detected using Clarity Western ECL (Bio-Rad, Hercules, CA, USA), Radiance Q (Azure Biosystems, Dublin, CA, USA), or SuperSignal Femto West (Thermo Scientific, Waltham, MA, USA) ECL reagents and a c280 Imager (Azure Biosystems) or autoradiography. […]
# gp78:UBE2G2 = assay: co-IP of gp78 with transfected MYC-UBE2G2, +/- oleic acid; conditions: WT HT1080, oleic acid loading, three experiments, reviewer response
# Excerpt: (§1) page 10: Major points: The phenotypes they show are strong but it would be nice to see the initial observations repeated in other cell lines. […] We have now generated HEK293 AUP1 KO cell lines and have recapitulated our initial results on domain requirements for both NHK and RI332 (Fig 1G-H, Fig 2C-D). We also provide data that E2 loss similarly occurs in these HEK293 AUP1 KO cells and that E2 stability can be restored by GFP-G2BR (Fig S5D and S5E). To extend our observations beyond HT1080 and HEK293, we also generated and examined M17 AUP1 KO cells, and observed a similar destabilization of UBE2G2 with loss of AUP1. […] Although, it is possible that the stability of UBE2G2 is due to the level of AUP1 in these cells, it is not clear whether the G2BR of AUP1 is always available for UBE2G2 binding and whether AUP1 acts as a sink for UBE2G2 when associated with lipid droplets. […] They can then compare the 'pulldown levels' of AUP1 and gp78 to the amounts of protein in the reference binding domains in (Figure 6). […] Alternatively, NHK degradation may be reduced under increasing Oleic acid levels but UBE2G2 binding is not affected. […] We have now loaded cells with oleic acid and assessed E2 levels and NHK degradation (Fig S5A and Fig S5B). […]
# AUP1:UBE2G2 = assay: co-IP of AUP1 with transfected MYC-UBE2G2, +/- oleic acid; conditions: WT HT1080, oleic acid loading, three experiments, reviewer response
# Excerpt: as §1
smiles,measurement,setting,value
CCCCCCCC/C=C\CCCCCCCC(=O)O [oleic acid],effect on UBE2G2 levels,UBE2G2,affected neither UBE2G2 levels
same,decrease of gp78 co-association with MYC-UBE2G2,gp78:UBE2G2,~ 20%
same,decrease of AUP1 co-association with MYC-UBE2G2,AUP1:UBE2G2,~ 27%
